Test results taken from patent US10092570B2 (Incyte Corporation, priority 2011, dated 2018).
Counter-ions that a name gives are not always drawn.

Target: PI3Kδ (p110δ/p85α) (Homo sapiens (Human), UniProt O00329)
Test: Example A3: PI3Kδ scintillation proximity assay
Type: biochemical
Conditions: scintillation proximity assay, 20 μM ATP, 4 nM PI3Kδ; read-out: PI3Kδ SPA IC50
In short: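 p110δ/p85α (4 nM) phosphorylated 20 μM PIP2 with 20 μM ATP plus [γ-33P]ATP in MOPS pH 6.7, MgCl2, DTT, CHAPS, 0.5% DMSO, at RT. Stopped with EDTA/excess ATP, product captured on WGA SPA beads overnight and counted; IC50 from percent control activity versus log inhibitor.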

Sequence of PI3Kδ (p110δ/p85α) (O00329 whole entry): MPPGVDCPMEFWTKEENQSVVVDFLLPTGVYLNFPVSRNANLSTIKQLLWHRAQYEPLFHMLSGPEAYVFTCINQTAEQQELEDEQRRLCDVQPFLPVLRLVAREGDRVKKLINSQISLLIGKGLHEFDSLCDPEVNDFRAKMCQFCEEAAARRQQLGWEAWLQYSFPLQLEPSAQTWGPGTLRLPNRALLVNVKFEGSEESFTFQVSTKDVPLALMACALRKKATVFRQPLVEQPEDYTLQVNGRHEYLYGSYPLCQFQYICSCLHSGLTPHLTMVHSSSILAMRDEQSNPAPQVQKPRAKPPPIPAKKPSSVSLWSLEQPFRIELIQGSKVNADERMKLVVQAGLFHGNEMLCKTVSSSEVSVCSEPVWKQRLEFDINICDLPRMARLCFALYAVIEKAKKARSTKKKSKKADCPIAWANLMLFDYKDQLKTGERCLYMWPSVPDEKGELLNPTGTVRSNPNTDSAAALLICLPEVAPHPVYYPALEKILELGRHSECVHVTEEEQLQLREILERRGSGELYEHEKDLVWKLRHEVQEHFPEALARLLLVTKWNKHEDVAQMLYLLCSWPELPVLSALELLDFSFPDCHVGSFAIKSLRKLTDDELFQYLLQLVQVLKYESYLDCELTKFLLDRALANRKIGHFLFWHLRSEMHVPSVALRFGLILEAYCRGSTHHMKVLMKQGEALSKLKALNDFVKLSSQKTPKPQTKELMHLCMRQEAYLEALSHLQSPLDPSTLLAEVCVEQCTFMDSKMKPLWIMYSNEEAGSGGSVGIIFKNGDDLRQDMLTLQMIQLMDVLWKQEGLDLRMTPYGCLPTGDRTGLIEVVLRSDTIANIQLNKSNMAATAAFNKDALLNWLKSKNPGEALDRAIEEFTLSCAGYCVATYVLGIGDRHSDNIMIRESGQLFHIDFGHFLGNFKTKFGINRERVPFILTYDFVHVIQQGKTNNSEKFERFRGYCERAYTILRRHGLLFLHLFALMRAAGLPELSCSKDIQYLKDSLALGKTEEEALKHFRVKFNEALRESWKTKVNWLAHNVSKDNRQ
Sequence of PI3Kδ (p110δ/p85α) (P27986 whole entry partner): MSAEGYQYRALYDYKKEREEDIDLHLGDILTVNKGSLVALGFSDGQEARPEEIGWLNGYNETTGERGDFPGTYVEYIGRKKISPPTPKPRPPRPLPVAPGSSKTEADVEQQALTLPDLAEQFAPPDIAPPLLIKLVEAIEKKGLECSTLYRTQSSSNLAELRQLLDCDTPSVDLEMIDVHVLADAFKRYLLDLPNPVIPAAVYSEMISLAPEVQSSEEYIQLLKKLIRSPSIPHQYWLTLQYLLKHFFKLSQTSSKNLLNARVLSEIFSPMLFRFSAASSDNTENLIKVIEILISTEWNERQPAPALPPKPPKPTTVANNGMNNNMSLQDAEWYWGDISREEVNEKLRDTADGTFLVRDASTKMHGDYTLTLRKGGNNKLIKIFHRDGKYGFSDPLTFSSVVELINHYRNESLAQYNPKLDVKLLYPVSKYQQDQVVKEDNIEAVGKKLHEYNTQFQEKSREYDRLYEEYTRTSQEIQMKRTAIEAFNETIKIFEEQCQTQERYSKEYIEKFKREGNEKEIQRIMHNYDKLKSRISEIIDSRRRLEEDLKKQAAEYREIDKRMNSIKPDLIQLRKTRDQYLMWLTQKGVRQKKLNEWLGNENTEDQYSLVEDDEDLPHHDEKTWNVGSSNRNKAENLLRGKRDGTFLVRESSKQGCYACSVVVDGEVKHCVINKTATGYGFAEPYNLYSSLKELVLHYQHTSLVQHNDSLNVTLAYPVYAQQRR

Structure (SMILES)	IC50 [nM]
COc1c([C@H](C)n2nc(C)c3c(N)ncnc32)cc(Cl)c(C#N)c1C1CN(C[C@@H](C)O)C1 [Example 362, 4-((S)-1-(4-amino-3-methyl-1H-pyrazolo[3,4-d]pyrimidin-1-yl)ethyl)-6-chloro-2-(1-((R)-2-hydroxypropyl)azetidin-3-yl)-3-methoxybenzonitrile]	< 10
COc1c(C(C)n2nc(C)c3c(N)ncnc32)cc(Cl)c(F)c1C1CN(C[C@@H](C)O)C1 (stereo partly drawn) [Example 69, (2R)-1-(3-{3-[1-(4-Amino-3-methyl-1H-pyrazolo[3,4-d]pyrimidin-1-yl)ethyl]-5-cyloro-6-fluoro-2-methoxyphenyl}azetidin-1-yl)propan-2-ol]	< 10
CCOc1c(C(C)n2nc(C)c3c(N)ncnc32)cc(Cl)c(C#N)c1-c1ccc(C(=O)N(C)C)nc1 (racemic) [Example 44, 5-(3-(1-(4-amino-3-methyl-1H-pyrazolo[3,4-d]pyrimidin-1-yl)ethyl)-5-chloro-6-cyano-2-ethoxyphenyl)-N,N-dimethylpicolinamide]	< 10
COc1c(C(C)n2nc(C)c3c(N)ncnc32)cc(Cl)c(C#N)c1C1CN(S(C)(=O)=O)C1 (single isomer, unassigned) [Example 285, 4-[1-(4-Amino-3-methyl-1H-pyrazolo[3,4-d]pyrimidin-1-yl)ethyl]-6-chloro-3-methoxy-2-[1-(methylsulfonyl)azetidin-3-yl]benzonitrile]	< 10
COc1c(C(C)n2nc(C)c3c(N)ncnc32)cc(Cl)c(C)c1C1CN(C2(CC#N)CCC2)C1 (single isomer, unassigned) [Example 161, [1-(3-{3-[1-(4-Amino-3-methyl-1H-pyrazolo[3,4-d]pyrimidin-1-yl)ethyl]-5-chloro-2-methoxy-6-methylphenyl}azetidin-1-yl)cyclobutyl]acetonitrile]	< 10
CCOc1c(C(C)n2nc(C)c3c(N)ncnc32)cc(Cl)c(C#N)c1C1CN(C(C)CO)C1 (single isomer, unassigned) [Example 224, 4-[1-(4-Amino-3-methyl-1H-pyrazolo[3,4-d]pyrimidin-1-yl)ethyl]-6-chloro-3-ethoxy-2-[1-(2-hydroxy-1-methylethyl)azetidin-3-yl]benzonitrile]	< 10
CCOc1c(C(C)n2nc(C)c3c(N)ncnc32)cc(Cl)c(C#N)c1-c1ccc(-c2cnn(C)n2)nc1 (racemic) [Example 337, 4-[1-(4-amino-3-methyl-1H-pyrazolo[3,4-d]pyrimidin-1-yl)ethyl]-6-chloro-3-ethoxy-2-[6-(2-methyl-2H-1,2,3-triazol-4-yl)pyridin-3-yl]benzonitrile]	< 10
COc1c(C(C)n2nc(C)c3c(N)ncnc32)cc(Cl)c(C)c1C1CN([C@H](C)C(=O)N(C)C)C1 (stereo partly drawn) [Example 159, (2R)-2-(3-{3-[1-(4-Amino-3-methyl-1H-pyrazolo[3,4-d]pyrimidin-1-yl)ethyl]-5-chloro-2-methoxy-6-methylphenyl}azetidin-1-yl)-N,N-dimethylpropanamide]	< 10
COc1c(C(C)n2ccc3c(N)ncnc32)cc(Cl)c(C)c1-c1ccc(C(=O)N(C)C)nc1 (stereo not shown) [Example 12, 5-{3-[1-(4-Amino-7H-pyrrolo[2,3-d]pyrimidin-7-yl)ethyl]-5-chloro-2-methoxy-6-methylphenyl}-N,N-dimethylpyridine-2-carboxamide trifluoroacetate]	200 to 500
COc1c(C(C)n2nc(C(F)F)c3c(N)ncnc32)cc(Cl)c(F)c1C1CN(C[C@H](C)O)C1 (stereo partly drawn) [Example 76, (2S)-1-[3-(3-{1-[4-amino-3-(difluoromethyl)-1H-pyrazolo[3,4-d]pyrimidin-1-yl]ethyl}-5-chloro-6-fluoro-2-methoxyphenyl)azetidin-1-yl]propan-2-ol]	< 10
COc1c(C(C)n2cc(C)c3c(N)ncnc32)cc(Cl)c(C)c1-c1ccc(C(=O)N(C)C)nc1 (racemic) [Example 42, 5-{3-[1-(4-Amino-5-methyl-7H-pyrrolo[2,3-d]pyrimidin-7-yl)ethyl]-5-chloro-2-methoxy-6-methylphenyl}-N,N-dimethylpyridine-2-carboxamide]	< 10
COc1c(C(C)n2nc(C(F)F)c3c(N)ncnc32)cc(C#N)c(C)c1C1CN(CC(F)F)C1 (racemic) [Example 136, 5-{1-[4-Amino-3-(difluoromethyl)-1H-pyrazolo[3,4-d]pyrimidin-1-yl]ethyl}-3-[1-(2,2-difluoroethyl)azetidin-3-yl]-4-methoxy-2-methylbenzonitrile]	< 10
COc1c(C(C)n2nc(C)c3c(N)ncnc32)cc(Cl)c(C)c1C1CN(CC(F)(F)F)C1 (single isomer, unassigned) [Example 108, 1-(1-{5-Chloro-2-methoxy-4-methyl-3-[1-(2,2,2-trifluoroethyl)azetidin-3-yl]phenyl}ethyl)-3-methyl-1H-pyrazolo[3,4-d]pyrimidin-4-amine]	< 10
COc1c(C(C)n2nc(C)c3c(N)ncnc32)cc(Cl)c(C)c1C1CN(CC(C)C)C1 (racemic) [Example 7, 1-{1-[5-Chloro-3-(1-isobutylazetidin-3-yl)-2-methoxy-4-methylphenyl]ethyl}-3-methyl-1H-pyrazolo[3,4-d]pyrimidin-4-amine]	< 10
COc1c(C(C)n2nc(C)c3c(N)ncnc32)cc(Cl)c(C)c1-c1cnn(CCN(C)C)c1 (single isomer, unassigned) [Example 183, 1-[1-(5-Chloro-3-{1-[2-(dimethylamino)ethyl]-1H-pyrazol-4-yl}-2-methoxy-4-methylphenyl)ethyl]-3-methyl-1H-pyrazolo[3,4-d]pyrimidin-4-amine]	< 10
CCOc1c(C(C)n2nc(C)c3c(N)ncnc32)cc(Cl)c(C#N)c1C1CN(S(=O)(=O)CC)C1 (single isomer, unassigned) [Example 249, 4-[1-(4-Amino-3-methyl-1H-pyrazolo[3,4-d]pyrimidin-1-yl)ethyl]-6-chloro-3-ethoxy-2-[1-(ethylsulfonyl)azetidin-3-yl]benzonitrile]	< 10
CCN1CC(c2c(C)c(Cl)cc(C(C)n3nc(C)c4c(N)ncnc43)c2OC)C1 (racemic) [Example 6, 1-{1-[5-Chloro-3-(1-ethylazetidin-3-yl)-2-methoxy-4-methylphenyl]ethyl}-3-methyl-1H-pyrazolo[3,4-d]pyrimidin-4-amine]	< 10
CCOc1c(C(C)n2nc(C)c3c(N)ncnc32)cc(Cl)c(C)c1C1CN(C(=O)[C@H](C)O)C1 (stereo partly drawn) [Example 99, (2S)-1-(3-{3-[1-(4-Amino-3-methyl-1H-pyrazolo[3,4-d]pyrimidin-1-yl)ethyl]-5-chloro-2-ethoxy-6-methylphenyl}azetidin-1-yl)-1-oxopropan-2-ol trifluoroacetate]	< 10
CCOc1c(C(C)n2nc(C)c3c(N)ncnc32)cc(Cl)c(C#N)c1-c1cncc(S(C)(=O)=O)c1 (racemic) [Example 43, 4-[1-(4-amino-3-methyl-1H-pyrazolo[3,4-d]pyrimidin-1-yl)ethyl]-6-chloro-3-ethoxy-2-[5-(methylsulfonyl)pyridin-3-yl]benzonitrile]	< 10
CCC(=O)N1CC(c2c(C)c(Cl)cc(C(C)n3nc(C)c4c(N)ncnc43)c2OC)C1 (stereo not shown) [Example 3, 1-{1-[5-Chloro-2-methoxy-4-methyl-3-(1-propionylazetidin-3-yl)phenyl]ethyl}-3-methyl-1H-pyrazolo[3,4-d]pyrimidin-4-amine trifluoroacetate]	< 10
CCOc1c(C(C)n2cc(C)c3c(N)ncnc32)cc(Cl)c(C#N)c1C1CN(C(C)C)C1 (stereo not shown) [Example 307, 4-[1-(4-Amino-5-methyl-7H-pyrrolo[2,3-d]pyrimidin-7-yl)ethyl]-6-chloro-3-ethoxy-2-(1-isopropylazetidin-3-yl)benzonitrile]	< 10
CCNC(=O)c1c(C)c(Cl)cc(C(C)n2nc(-c3ccc4nc(N)sc4c3)c3c(N)ncnc32)c1OCC (racemic) [Example 90, 3-{1-[4-Amino-3-(2-amino-1,3-benzothiazol-6-yl)-1H-pyrazolo[3,4-d]pyrimidin-1-yl]ethyl}-5-chloro-2-ethoxy-N-ethyl-6-methylbenzamide]	< 10
CCOc1c(C(C)n2nc(C)c3c(N)ncnc32)cc(C)c(C#N)c1-c1cnn(C)c1 (racemic) [Example 343, 4-[1-(4-amino-3-methyl-1H-pyrazolo[3,4-d]pyrimidin-1-yl)ethyl]-3-ethoxy-6-methyl-2-(1-methyl-1H-pyrazol-4-yl)benzonitrile]	< 10
COc1c(C(C)n2nc(C)c3c(N)ncnc32)cc(Cl)c(C)c1C1CN(C(=O)[C@H](C)O)C1 (single isomer, unassigned) [Example 118]	< 10
COc1c(C(C)n2nc(C)c3c(N)ncnc32)cc(Cl)c(C)c1C1CN(C(C)C#N)C1 (stereo not shown) [Example 106, 2-(3-{3-[1-(4-Amino-3-methyl-1H-pyrazolo[3,4-d]pyrimidin-1-yl)ethyl]-5-chloro-2-methoxy-6-methylphenyl}azetidin-1-yl)propanenitrile]	< 10
COc1c(C(C)n2cc(C)c(=O)c3c(N)ncnc32)cc(Cl)c(C)c1-c1ccc(C(=O)N(C)C)nc1 (stereo not shown) [Example 360, 5-{3-[1-(4-Amino-6-methyl-5-oxopyrido[2,3-d]pyrimidin-8(5H)-yl)ethyl]-5-chloro-2-methoxy-6-methylphenyl}-N,N-dimethylpyridine-2-carboxamide bis(trifluoroacetate)]	< 10
CCOc1c(C(C)n2nc(C)c3c(N)ncnc32)cc(Cl)c(C#N)c1C1CN(C2CCOC2)C1 (single isomer, unassigned) [Example 228, 4-[1-(4-Amino-3-methyl-1H-pyrazolo[3,4-d]pyrimidin-1-yl)ethyl]-6-chloro-3-ethoxy-2-[1-(tetrahydrofuran-3-yl)azetidin-3-yl]benzonitrile]	< 10
COc1c(C(C)n2nc(C(F)F)c3c(N)ncnc32)cc(C#N)c(F)c1C1CN(C[C@H](C)O)C1 (stereo partly drawn) [Example 77, 5-(1-(4-Amino-3-(difluoromethyl)-1H-pyrazolo[3,4-d]pyrimidin-1-yl)ethyl)-2-fluoro-3-(1-((S)-2-hydroxypropyl)azetidin-3-yl)-4-methoxybenzonitrile]	< 10
